Reference: PMC5400507, “The neuropeptide F/nitric oxide pathway is essential for shaping locomotor plasticity underlying locust phase transition” (eLife, 2017)

What was measured:
Type in all cases: in vivo, Locusta migratoria
locusts = assay: Behavioral arena assay (Pgreg, TDM, TDMV, attraction index); conditions: for attraction index: 2 hr after drug injection (L-NAME in G-phase, SNAP in S-phase) or 48 hr after NOS knockdown in G-phase; for behavioral phase state (Pgreg) / total distance moved (TDM) / total duration of movement (TDMV): n ≥ 23
Method: The concentrations of peptides and drugs that were used were determined according to described methods ([[…] and Yates, 2007]; [Van […] et al., 2013b]). […] Working solutions of different concentrations (0.05, 0.5 and 2.5 μg/μl) were injected into the hemolymph in the heads of fourth-instar locusts using a microinjector (2 μl/locust). The arena behavioral assay was conducted 1 hr, 2 hr, and 4 hr following injection. […] Working solution (100 μM) was microinjected into the heads of G-phase locusts (2 μl/locust). SNAP was dissolved with DMSO to prepare 100 mM stock solution. Working solution (200 μM) was microinjected into the heads of S-phase locusts (2 μl/locust). Locust behaviors were tested 2 hr after drug injection. The behavioral assay was performed in a rectangular Perspex arena (40 cm × 30 cm × 10 cm) containing three chambers. The left chamber (7.5 cm × 30 cm × 10 cm) contained 30 fourth-instar G-phase locusts as a stimulus group, and the right chamber was empty (7.5 cm × 30 cm × 10 cm). Locusts behaviors were recorded for 300 s by an EthoVision video tracking system and analyzed according to the binary logistic regression model constructed in our previous work ([Guo et al., 2011]). Details are as follow: […] AI = total duration in stimulus area - total duration in the opposite of stimulus area; this parameter represents the extent to which the tested animals are attracted by the stimulus group. TDMV (total duration of movement) and TDM (total distance moved) indicate the locomotor activity levels. Pgreg indicates the probability that a locust is considered gregarious. […] In the behavioral assay, 16-35 locusts were tested for each treatment according to the sample size reported in previous studies ([Ott et al., 2012]; [Ma et al., 2011]). […] Two hours later, SNAP (200 μM, 2 μl/locust) was injected into the heads of the experimental insects. Control insects were treated with an equal amount of saline. The injected locusts were then raised under the gregarious condition and subjected to behavioral analysis 2 hr after injection of SNAP. For S-phase locusts, […] or […] was microinjected into the brains of fourth-instar S-phase insects. […] The insects treated with dsGFP were used as a control.

NO = NO level in locust brains (Total Nitric Oxide Assay Kit); conditions: n = 4 samples
Method: (§1) An enzyme-linked immunosorbent assay (ELISA) kit (R and D Systems, Inc.) was used to detect the relative cAMP level in locust brains. For NO content determination, Total Nitric Oxide Assay Kit (Beyotime) was used. Because NO molecules are unstable, the total NO levels in all test groups were assessed by detecting the content of nitrate and nitrite. The NOS Kit (Nanjing Jiancheng Bioengineering Institute) was used to detect the total NOS activity in locust brains. Protein concentrations were measured using the BicinChoninic Acid (BCA) Protein Assay Kit (Thermo). All of these three measurements were performed according to the manufacturer’s instructions. Each measurement was from at least four biological replicates (12–16 locusts/replicate). Data were normalized to the protein concentration.

NOS = assay: Total NOS activity in locust brains (NOS Kit); conditions: n = 4 samples
Method: as §1

[1] = G-phase locusts pre-injected with NPF1a or NPF2 peptide, SNAP 200 μM, 2 μl/locust 2 hr later, tested 2 hr after SNAP, n ≥ 24
[2] = S-phase locusts, 2 hr after injection of SNAP (200 μM, 2 μl/locust)
[3] = S-phase locust brains, 2 hr after SNAP injection
[4] = G-phase locusts, 2 hr after injection of L-NAME (100 μM, 2 μl/locust) or 48 hr after NOS knockdown
[5] = S-phase locusts pre-injected with dsNPFR or dsNPYR, 2 hr after L-NAME injection, n ≥ 16
[6] = G-phase locust brains, 2 hr after L-NAME injection or 48 hr after NOS knockdown

Row | Molecule | attraction index (locusts) | Pgreg, rescue (locusts; [1]) | total distance moved, rescue (locusts; [1]) | total duration of movement, rescue (locusts; [1]) | behavioral phase state (Pgreg) (locusts; [2]) | total distance moved (TDM) (locusts; [2]) | total duration of movement (TDMV) (locusts; [2]) | NO levels (NO; [3]) | NOS activity (NOS; [3]) | behavioral phase state (Pgreg) (locusts; [4]) | total distance moved (TDM) (locusts; [4]) | total duration of movement (TDMV) (locusts; [4]) | Pgreg increase induced by NPFR or NPYR knockdown (locusts; [5]) | total distance moved increase induced by NPFR or NPYR knockdown (locusts; [5]) | total duration of movement increase induced by NPFR or NPYR knockdown (locusts; [5]) | NO levels (NO; [6]) | NOS activity (NOS; [6])
1 | S-nitroso-N-acetyl-penicillamine [SNAP] | did not change the attraction index | robust recovery | robust recovery | robust recovery | pushed locust behavioral change from S-phase to G-phase state | enhanced | enhanced | increased | without affecting NOS activity | – | – | – | – | – | – | – | –
2 | COC(=O)[C@@H](N)CCCNC(N)=N[N+](=O)[O-] [L-NAME, N-Nitro-L-arginine Methyl Ester] | did not change the attraction index | – | – | – | – | – | – | – | – | S-phase-like behavior | strongly suppressed | strongly suppressed | robustly abolished the increase | robustly abolished the increase | robustly abolished the increase | significantly reduced | significantly reduced
